Data set [1] deals with Rat2 fibroblasts stably transformed with v-Src/Hu c-Src fusion gene (Homo sapiens, UniProt P12931, cells depend on it, form not given). As to the kind of experiment: Anchorage Independent Src-transformed Fibroblast Proliferation Assay. Format: cell-based, rat. From the text:
Rat2 fibroblasts stably transformed with a plasmid containing a CMV promotor controlled v-Src/Hu c-Src fusion gene in which the catalytic domain of human c-Src was inserted in place of the v-Src catalytic domain in the v-Src gene are used for the measurement of src dependent suspension growth.

Data set [2] has as its target T1, Recombinant human Src enzyme (Homo sapiens, UniProt P12931).
T1 construct: purchased PanVera P3044
Nature of the data set: Src Kinase Assay (LANCE FRET). The data set is classed as biochemical. How it is done:
Recombinant human Src enzyme was obtained from PanVera (P3044). […] Homogeneous fluorescence resonance energy transfer kinase assays were performed using the europium/APC detection format (LANCE, Perkin Elmer). Src enzyme (10 ng) was mixed with biotinylated peptide (final concentration 2 μM), 50 mM Hepes (pH 7.5), 10 mM MgCl2, 20 ug/ml BSA, 0.001% Brij-35 (Sigma), 100 μM ATP, 1% DMSO. The kinase reaction was incubated for 70 min at 37° C. The reaction was stopped with EDTA at a final concentration of 30 mM EDTA/25 mM Hepes (pH 7.5)/10 μg/ml BSA. The mixture was combined with Eu-labeled anti-phosphotyrosine antibody PT66 (Perkin Elmer, AD0068) and Streptavidin Surelight-APC (Perkin Elmer, CR130-100) in 50 mM Hepes (pH 7.5)/20 μg/ml BSA, and incubated for 30 min according to manufacturer's specifications. […] Multiple entries for a given compound indicate that it was tested multiple times.
(Time-resolved FRET reads energy transfer from a long-lived donor to a nearby acceptor.)

For data set [3], the system named is KU812 Cells. Nature of the data set: KU812 cell assay. Format: cell-based. The following applies: Homo sapiens. How it is done: (§1) The cell assays were performed as noted in Cancer Research 63, 375-381 (2003).
Data set [4] deals with HT29 cells. Nature of the data set: HT29 Xenograft Assay. The data set is classed as in vivo. The note with it: 100 mg/kg oral gavage once a day for 14 days; at day 14; female nude mice. The protocol: All animal studies were conducted under an approved Institutional Animal Care and Use Committee protocol. HT29 cells were suspended to 50 million cells/ml and 0.2 ml of the cell suspension was injected into 6-7 weeks old female nude mice (Charles River, Wilmington, Mass.). […] At day 14 the T/C (growth of tumors in treated animals/growth of tumors in control animals) was 0.53.

For data set [5], the system named is K562 Cells. As to the kind of experiment: K562 cell assay. The data set is classed as cell-based. The note with it: Homo sapiens. How it is done:
as §1

Data set [6] has as its target T2, Wild type c-Abl (Homo sapiens, UniProt P00519).
T2 construct: purchased Panvera P3049
Nature of the data set: Abl Kinase Assay (LANCE FRET). The data set is classed as biochemical. The following applies: 100 μM ATP; read-out: c-Abl enzyme IC50. How it is done: Wild type c-Abl was purchased from Panvera (P3049). Biotinylated peptide for the Abl kinase assay was obtained from Synpep (Biotin-NH-[…]-COOH). Homogeneous fluorescence resonance energy transfer kinase assays were performed using the europium/APC detection format (LANCE, Perkin Elmer). Abl enzyme (2.5 ng c-Abl) was mixed with biotinylated peptide (final concentration 2 μM), 50 mM Hepes (pH 7.5), 10 mM MgCl2, 20 ug/ml BSA, and 0.001% Brij-35 (Sigma). Compound was added with a final DMSO concentration of 1%, and incubated for ten minutes at 27° C. The kinase reaction was initiated by addition of ATP to a final concentration of 100 μM, and incubated for 30 minutes at 27° C. The reaction was stopped with EDTA at a final concentration of 30 mM EDTA/25 mM Hepes (pH 7.5)/10 μg/ml BSA. The mixture was combined with Eu-labeled phosphotyrosine antibody PT66 (Perkin Elmer, AD0068) and Streptavidin Surelight-APC (Perkin Elmer, CR130-100) in 50 mM Hepes (pH 7.5)/20 μg/ml BSA, and incubated for 30 minutes according to manufacturer's specifications. The reaction was monitored on a Wallac Victor with excitation at 340 nm and emission at 665 nm. Data was analyzed with the LSW data analysis plug-in for Excel (Microsoft).

Data set [7] has as its target T3, Rat2 fibroblasts stably transformed with v-Src/Hu Lck fusion gene (Homo sapiens, UniProt P06239, cells depend on it, form not given).
T3 construct: fused on or other part: v-Src of Rous sarcoma virus outside the catalytic domain (N-terminal unique/SH3/SH2 region and C-terminal tail); candidates are Schmidt-Ruppin A (P00524) and Prague C (P00526)
As to the kind of experiment: Anchorage Independent Lck-transformed Fibroblast Proliferation Assay. The data set is classed as cell-based, rat. The following applies: suspension growth, MTS on Day 5; multiple entries = tested multiple times; read-out: Lck cells IC50. From the text: Rat2 fibroblasts stably transformed with a plasmid containing a CMV promotor controlled v-Src/Hu Lck fusion gene in which the catalytic domain of human Lck was inserted in place of the v-Src catalytic domain in the v-Src gene are used for the measurement of src dependent suspension growth.

Where [8] appears, read: single value, read-out: Src Cell IC50.
Where [9] appears, read: single value, read-out: Src Enzyme IC50.
The mark [10] stands for this setting: suspension growth, MTS on Day 5, multiple entries = tested multiple times, read-out: Src cells IC50.
[11] abbreviates: 100 μM ATP, multiple entries = tested multiple times, read-out: Src enzyme IC50.

Structures are written as SMILES. Where “and” joins values, the source holds several entries; their conditions need not be identical. Identical values can stand only once. Like-named read-outs stand apart in the source and are kept apart here.

T1 sequence (P12931 whole entry): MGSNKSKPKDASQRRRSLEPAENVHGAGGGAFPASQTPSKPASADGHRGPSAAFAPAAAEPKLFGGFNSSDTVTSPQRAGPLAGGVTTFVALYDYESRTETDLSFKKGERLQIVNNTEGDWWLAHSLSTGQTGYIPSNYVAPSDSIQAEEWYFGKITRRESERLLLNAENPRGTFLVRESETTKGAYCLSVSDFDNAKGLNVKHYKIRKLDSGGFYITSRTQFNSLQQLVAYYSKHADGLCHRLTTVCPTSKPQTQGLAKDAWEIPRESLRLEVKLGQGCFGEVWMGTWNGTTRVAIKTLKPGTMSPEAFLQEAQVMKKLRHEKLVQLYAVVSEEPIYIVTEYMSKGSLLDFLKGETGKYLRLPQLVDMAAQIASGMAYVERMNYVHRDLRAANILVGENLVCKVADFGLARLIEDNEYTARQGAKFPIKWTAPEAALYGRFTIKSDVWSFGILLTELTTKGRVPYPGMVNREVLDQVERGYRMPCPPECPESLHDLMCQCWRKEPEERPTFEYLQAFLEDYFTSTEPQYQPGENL
Rat2 fibroblasts stably transformed with v-Src/Hu c-Src fusion gene, sequence (P12931 whole entry, stated change not applied, the tested form may be a part): as the sequence (P12931 whole entry) above
T2 sequence (P00519 whole entry): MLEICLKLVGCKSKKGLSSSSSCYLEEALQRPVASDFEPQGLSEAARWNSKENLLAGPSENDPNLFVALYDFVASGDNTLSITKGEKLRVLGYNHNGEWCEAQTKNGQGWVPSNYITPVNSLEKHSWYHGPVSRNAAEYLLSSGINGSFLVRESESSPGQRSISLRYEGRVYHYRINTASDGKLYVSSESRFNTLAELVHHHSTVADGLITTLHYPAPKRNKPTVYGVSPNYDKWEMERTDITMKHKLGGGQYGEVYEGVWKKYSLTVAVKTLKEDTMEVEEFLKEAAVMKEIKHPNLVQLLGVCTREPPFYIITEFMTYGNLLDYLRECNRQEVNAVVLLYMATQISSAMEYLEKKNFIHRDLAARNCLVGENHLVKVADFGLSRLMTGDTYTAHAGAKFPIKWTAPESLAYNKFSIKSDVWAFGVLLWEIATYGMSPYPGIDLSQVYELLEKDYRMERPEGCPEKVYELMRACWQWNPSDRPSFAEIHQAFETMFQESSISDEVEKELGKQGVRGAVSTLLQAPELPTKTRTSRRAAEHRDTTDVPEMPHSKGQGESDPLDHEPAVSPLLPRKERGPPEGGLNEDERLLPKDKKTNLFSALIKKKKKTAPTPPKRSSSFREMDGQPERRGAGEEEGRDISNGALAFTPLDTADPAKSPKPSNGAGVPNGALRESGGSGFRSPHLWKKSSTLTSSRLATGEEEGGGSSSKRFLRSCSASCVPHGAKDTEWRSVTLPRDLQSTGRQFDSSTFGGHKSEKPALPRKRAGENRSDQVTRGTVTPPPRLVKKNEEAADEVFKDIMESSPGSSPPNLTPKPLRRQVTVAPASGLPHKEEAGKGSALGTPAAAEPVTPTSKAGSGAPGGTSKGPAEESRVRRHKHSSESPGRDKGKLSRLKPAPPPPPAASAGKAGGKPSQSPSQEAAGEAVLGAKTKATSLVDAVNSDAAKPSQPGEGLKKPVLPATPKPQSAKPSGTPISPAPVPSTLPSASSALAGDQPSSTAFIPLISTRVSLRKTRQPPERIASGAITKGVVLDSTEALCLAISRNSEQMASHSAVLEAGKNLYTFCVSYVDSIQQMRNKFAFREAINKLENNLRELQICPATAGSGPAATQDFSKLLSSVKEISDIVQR
T3 sequence (P06239 whole entry, change not shown, the tested form may be a part): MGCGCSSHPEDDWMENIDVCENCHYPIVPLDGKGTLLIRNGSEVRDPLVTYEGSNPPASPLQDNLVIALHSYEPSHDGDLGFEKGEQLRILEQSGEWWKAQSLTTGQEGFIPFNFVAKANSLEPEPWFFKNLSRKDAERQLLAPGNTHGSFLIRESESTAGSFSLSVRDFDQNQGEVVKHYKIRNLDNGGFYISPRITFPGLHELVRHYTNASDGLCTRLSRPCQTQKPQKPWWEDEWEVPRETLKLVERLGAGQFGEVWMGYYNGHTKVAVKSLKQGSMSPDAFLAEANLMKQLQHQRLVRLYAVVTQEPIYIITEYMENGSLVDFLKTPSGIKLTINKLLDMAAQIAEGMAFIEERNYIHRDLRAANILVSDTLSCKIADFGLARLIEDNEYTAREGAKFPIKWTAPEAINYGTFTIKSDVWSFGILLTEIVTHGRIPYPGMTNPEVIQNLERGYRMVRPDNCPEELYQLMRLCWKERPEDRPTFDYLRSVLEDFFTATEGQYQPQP

`COc1cc(Nc2c(C#N)cnc3cc(-c4coc(CN5CCOCC5)c4)c(OC)cc23)c(Cl)cc1Cl` [Example 3, 4-[(2,4-Dichloro-5-methoxyphenyl)amino]-6-methoxy-7-[5-(morpholin-4-ylmethyl)-3-furyl]-3-quinolinecarbonitrile]: the melting point (commonly the temperature, or range, at which the solid turns liquid) fell in the range of 164 to 166 °C.
Take `c1ccsc1` [thiophene, reference compound]: the GI50 in data set [1] (setting [8]) worked out at 94 nM. Moreover, the half-inhibitory concentration (IC50) (in general, the midpoint of a concentration-inhibition curve) in data set [2] (setting [9]) was determined as 3.7 nM.
`COc1cc(Nc2c(C#N)cnc3cc(-c4coc(CN5CCN(C)CC5)c4)c(OC)cc23)c(Cl)cc1Cl` [Example 1] showed a melting point of 179 to 181 °C. Half-maximal inhibition in data set [3] (IC50) required 6 nM. In addition, the GI50 in data set [1] (setting [8]) is 15 nM. Besides, in data set [1] (setting [10]), the GI50 stood at 16 nM. Further, the “T/C (growth of tumors in treated animals/growth of tumors in control animals)” value in data set [4] was found to be 0.53. Also, in data set [5], half-maximal inhibition (IC50) required 5.6 nM. Also, the IC50 in data set [6] was 0.4 nM and 0.27 nM and 0.25 nM. For the same compound, in data set [2] (setting [11]), the 50% inhibitory concentration (IC50) is 1 nM and 0.6 nM and 0.7 nM. Moreover, the concentration for half-maximal inhibition (IC50) in data set [2] (setting [9]) turned out to be 0.8 nM.
`COc1ccc(N2CCN(Cc3cc(-c4cc5ncc(C#N)c(Nc6cc(OC)c(Cl)cc6Cl)c5cc4OC)co3)CC2)c(OC)c1` [Example 5, 4-[(2,4-Dichloro-5-methoxyphenyl)amino]-6-methoxy-7-(5-{[4-(2,4-dimethoxyphenyl)piperazin-1-yl]methyl}-3-furyl)-3-quinolinecarbonitrile] returned a melting point of 223 to 225 °C. Besides, the GI50 in data set [1] (setting [10]) was 19 nM and 17 nM. The GI50 in data set [7] is 246 nM and 203 nM and 239 nM. Also, the 50% inhibitory concentration (IC50) in data set [2] (setting [11]) is 3.5 nM and 3.1 nM.
In turn, `COc1cc(Nc2c(C#N)cnc3cc(-c4coc(CN5CCN(c6ccccc6)CC5)c4)c(OC)cc23)c(Cl)cc1Cl` [Example 4, 4-[(2,4-Dichloro-5-methoxyphenyl)amino]-6-methoxy-7-{5-[(4-phenylpiperazin-1-yl)methyl]-3-furyl}-3-quinolinecarbonitrile] came in with a melting point of 201 to 203 °C. In addition, the GI50 in data set [7] was 353 nM and 447 nM.
In the case of `CCCN(CCC)Cc1cc(-c2cc3ncc(C#N)c(Nc4cc(OC)c(Cl)cc4Cl)c3cc2OC)co1` [Example 16, 4-[(2,4-dichloro-5-methoxyphenyl)amino]-7-{5-[(dipropylamino)methyl]-3-furyl]-6-methoxyquinoline-3-carbonitrile], in data set [2] (setting [11]), the half-maximal inhibitory concentration (IC50) was 10.2 nM and 6.5 nM.
The same measure, in the same setting: in the case of `CCN(CC)CCCN1CCN(Cc2cc(-c3cc4ncc(C#N)c(Nc5cc(OC)c(Cl)cc5Cl)c4cc3OC)co2)CC1` [Example 33, 4-[(2,4-dichloro-5-methoxyphenyl)amino]-7-[5-({4-[3-(diethylamino)propyl]piperazin-1-yl}methyl)-3-furyl]-6-methoxyquinoline-3-carbonitrile] it was 2 nM; in that of `COc1cc(Nc2c(C#N)cnc3cc(-c4coc(CN5CCN(c6ccc(O)cc6)CC5)c4)c(OC)cc23)c(Cl)cc1Cl` [Example 24, 4-[(2,4-dichloro-5-methoxyphenyl)amino]-7-(5-{[4-(4-hydroxyphenyl)piperazin-1-yl]methyl}-3-furyl)-6-methoxyquinoline-3-carbonitrile], 6 nM and 5.6 nM.
Turning to `COc1cc(Nc2c(C#N)cnc3cc(-c4coc(CN(C)C)c4)c(OC)cc23)c(Cl)cc1Cl` [Example 2, 4-[(2,4-Dichloro-5-methoxyphenyl)amino]-6-methoxy-7-{5-[(dimethylamino)methyl]-3-furyl}-3-quinolinecarbonitrile], the melting point is 133 to 138 °C. In data set [7], the GI50 was 11 nM.
On to `COCCN(C)Cc1cc(-c2cc3ncc(C#N)c(Nc4cc(OC)c(Cl)cc4Cl)c3cc2OC)co1` [Example 32, 4-[(2,4-dichloro-5-methoxyphenyl)amino]-6-methoxy-7-(5-{[(2-methoxyethyl)(methyl)amino]methyl}-3-furyl)quinoline-3-carbonitrile], for which the IC50 in data set [2] (setting [11]) is 2.9 nM and 2.6 nM.

Values taken from US7479561B2, “4-(2,4-dichloro-5-methoxyphenyl)amino-6-methoxy-7-{[5-substituted-amino)methyl]-3-furyl}-3-quinolinecarbonitriles as kinase inhibitors” (Wyeth, priority 2004, dated 2009).
